# Laboratory results: patent US12565485B2, “Solid forms of 1-((S)-4-((R)-7-(6-amino-4-methyl-3-(trifluoromethyl)pyridin-2-yl)-6-chloro-8-fluoro-2-(((s)-1-methylpyrrolidin-2-yl)methoxy)quinazolin-4-yl)-3-methylpiperazin-1-yl)prop-2-en-1-one” (Genentech, Inc., priority 2022, dated 2026)
# Legend:
# [1] = Overall summary of solid form stability; conditions: compared with the other identified salt forms
# Excerpt: Overall Summary. […] The amorphous form is considered for development purposes to be unstable for further development.
# [2] = VH-XRPD analysis / transitions of forms at varying relative humidity; format: physicochemical
# Excerpt: FIG. 19. The sample then reverts to the original form upon reaching 30% RH. […] Transitions of Forms of Compound A at varying RH.
# Liquid vapor diffusion = format: physicochemical
# Protocol: Liquid vapor diffusion. Liquid vapor diffusion experiments were conducted in different solvent systems. […] This solution was then placed into a 20-mL vial with 3 mL of corresponding anti-solvent. The 20-mL vial was sealed with a cap and kept at RT allowing sufficient time for organic vapor to interact with the solution. The precipitates were isolated for XRPD analysis.
# Liquid vapor diffusion Compound A. Liquid vapor diffusion experiments were conducted in different solvent systems. […] This solution was then placed into a 20-mL vial with 3 mL of corresponding anti-solvent. The 20-mL vial was sealed with a cap and kept at RT allowing sufficient time for organic vapor to interact with the solution. The precipitates were isolated for XRPD analysis.
# Slow cooling = format: physicochemical; conditions: adipate polymorph screening summary; Slow Cooling
# Protocol: Slow cooling Compound A. Slow cooling experiments were conducted in four solvent systems. […] The suspension was then heated to 50° C., equilibrated for about 2 hr and filtered to a new vial using a seal membrane (PTFE, pore size of 0.45 μm). Filtrates were slowly cooled down to 5° C. at a rate of 0.1° C./min. The obtained solids were kept isothermal at 5° C. before isolation for XRPD analysis.
# Anti-solvent addition = format: physicochemical
# Protocol: Anti-solvent addition. A total of 12 anti-solvent addition experiments were carried out. […] The obtained precipitate was isolated for XRPD analysis.
# Anti-solvent addition Compound A. A total of 14 anti-solvent addition experiments were carried out. […] The obtained precipitate was isolated for XRPD analysis.
# Slow evaporation = format: physicochemical
# Protocol: Slow evaporation. Slow evaporation experiments were performed under 10 conditions. Briefly, about 15˜20 mg of freebase starting material (810935-01-A) was dissolved in 0.5˜1.0 mL of solvent in a 3-mL glass vial.
# Slow evaporation Compound A. Slow evaporation experiments were performed under seven conditions.
# [3] = Summary of polymorph screening experiments, total over all methods; format: physicochemical
# Protocol: A total of 64 polymorph screening experiments were performed for freebase Compound 1 using the sample received as starting material through different crystallization methods. As a result, Form A was obtained from polymorph screening.
# Results summarized in Table 40 were used to guide the solvent selection in polymorph screening of adipate.
# Solid vapor diffusion = format: physicochemical; conditions: adipate polymorph screening summary; Solid Vapor Diffusion
# Protocol: Solid vapor diffusion Compound A. Solid vapor diffusion experiments were conducted using 12 different solvents. […] The 20-mL vial was sealed with a cap and kept at RT allowing solvent vapor to interact with the sample.
# [4] = Slurry conversion experiments (XRPD of isolated solids); format: physicochemical
# Protocol: Slurry conversion experiments were conducted at RT in different solvent systems. About 15˜20 mg of freebase starting material (Compound 1) was suspended in 0.5 mL of solvent in an HPLC vial. Solids were isolated for XRPD analysis after magnetically stirring at RT.
# Slurry at 5°. Slurry conversion experiments were conducted at 5° C. in different solvent systems. About 15˜20 mg of freebase starting material (Compound 1) was suspended in 0.5 mL of solvent in an HPLC vial. Solids were isolated for XRPD analysis after magnetically stirring at 5° C.
# Slurry at 50°. Slurry conversion experiments were conducted at 50° C. in different solvent systems. About 20 mg of freebase starting material (Compound 1) was suspended in 0.5 mL of solvent in an HPLC vial. Solids were isolated for XRPD analysis after magnetical stirring at 50° C.
# Slurry at RT for Compound A. Slurry conversion experiments were conducted at RT in different solvent systems. […] Solids were isolated for XRPD analysis after magnetic stirring at RT.
# Slurry at 50° for Compound A. Slurry conversion experiments were conducted at 50° C. in different solvent systems. […] Solids were isolated for XRPD analysis after magnetic stirring at 50° C.
smiles,measurement,setting,value
C=CC(=O)N1CCN(c2nc(OC[C@@H]3CCCN3C)nc3c(F)c(-c4nc(N)cc(C)c4C(F)(F)F)c(Cl)cc23)[C@@H](C)C1 [Compound A],Stability of the form for further development,[1],most stable form
same,RH at which sample reverts to the original form (VH-XRPD),[2],30 % RH
same,RH at which small changes appear in VH-XRPD,[2]; changes remain up until 80% RH,44-46 % RH
C=CC(=O)N1CCN(c2nc(OC[C@@H]3CCCN3C)nc3c(F)c(-c4nc(N)cc(C)c4C(F)(F)F)c(Cl)cc23)[C@@H](C)C1.O=C(O)CCCCC(=O)O [adipate],Result,"Liquid vapor diffusion; adipate polymorph screening summary, Liquid Vapor Diffusion","Amorphous, clear, gel"
same,Result,Slow cooling,Compound A Form A
same,Result,"Anti-solvent addition; adipate polymorph screening summary, Anti-solvent Addition","Compound A Form A, B, clear, gel"
same,Result,"Slow evaporation; adipate polymorph screening summary, Slow Evaporation","Gel, clear"
same,Result,[3]; adipate polymorph screening summary,"Compound A Form A, Compound A Form"
same,Result,Solid vapor diffusion,Compound A Form A
same,Result,"[4]; adipate polymorph screening summary, Slurry at RT/50° C.","Compound A Form A, gel, clear"
"C=CC(=O)N1CCN(c2nc(OC[C@@H]3CCCN3C)nc3c(F)c(-c4nc(N)cc(C)c4C(F)(F)F)c(Cl)cc23)[C@@H](C)C1 (atropisomer, axis not shown) [Compound 1, 1-((S)-4-((R)-7-(6-amino-4-methyl-3-(trifluoromethyl)pyridin-2-yl)-6-chloro-8-fluoro-2-(((S)-1-methylpyrrolidin-2-yl)methoxy)quinazolin-4-yl)-3-methylpiperazin-1-yl)prop-2-en-1-one]",Result,"Liquid vapor diffusion; freebase polymorph screening summary, Liquid Vapor Diffusion","Form A, amorphous, gel, clear"
same,Result,"Liquid vapor diffusion; freebase, RT, solvent 1.4-Dioxane, anti-solvent n-Heptane",Gel
same,Result,"Liquid vapor diffusion; freebase, RT, solvent 2-Butanol, anti-solvent n-Heptane",Gel
same,Result,"Liquid vapor diffusion; freebase, RT, solvent ACN, anti-solvent H2O",Form A
same,Result,"Liquid vapor diffusion; freebase, RT, solvent Acetone, anti-solvent n-Pentane",Form A
same,Result,"Liquid vapor diffusion; freebase, RT, solvent Anisole, anti-solvent n-Pentane",Gel
same,Result,"Liquid vapor diffusion; freebase, RT, solvent CPME, anti-solvent n-Pentane",Gel
same,Result,"Liquid vapor diffusion; freebase, RT, solvent DMF, anti-solvent H2O",Clear solution
same,Result,"Liquid vapor diffusion; freebase, RT, solvent DMSO, anti-solvent H2O",Amorphous
same,Result,"Liquid vapor diffusion; freebase, RT, solvent EtOAc, anti-solvent n-Pentane",Gel
same,Result,"Liquid vapor diffusion; freebase, RT, solvent IPAc, anti-solvent n-Heptane",Amorphous
same,Result,"Liquid vapor diffusion; freebase, RT, solvent THF, anti-solvent H2O",Form A (Low crystallinity)
same,Result,"Liquid vapor diffusion; freebase, RT, solvent Toluene, anti-solvent n-Heptane",Gel
same,Result,"Liquid vapor diffusion; freebase, RT, solvent Xylene, anti-solvent n-Pentane",Gel
same,Result,"Anti-solvent addition; freebase polymorph screening summary, Anti-solvent Addition","Form A, amorphous, gel,"
same,Result,"Anti-solvent addition; freebase, solvent 1.4-Dioxane, anti-solvent H2O",Gel
same,Result,"Anti-solvent addition; freebase, solvent ACN, anti-solvent n-Heptane",Form A (Low
same,Result,"Anti-solvent addition; freebase, solvent Acetone, anti-solvent n-Heptane",Form A (Low
same,Result,"Anti-solvent addition; freebase, solvent Anisole, anti-solvent Cyclohexane",Gel
same,Result,"Anti-solvent addition; freebase, solvent CPME, anti-solvent n-Heptane",Amorphous
same,Result,"Anti-solvent addition; freebase, solvent DCM, anti-solvent Cyclohexane",Form A (Low
same,Result,"Anti-solvent addition; freebase, solvent DMSO, anti-solvent H2O",Low crystallinity
same,Result,"Anti-solvent addition; freebase, solvent EtOAc, anti-solvent n-Heptane",Amorphous
same,Result,"Anti-solvent addition; freebase, solvent MEK, anti-solvent Cyclohexane",Gel
same,Result,"Anti-solvent addition; freebase, solvent MeOH, anti-solvent H2O",Amorphous
same,Result,"Anti-solvent addition; freebase, solvent THF, anti-solvent H2O",Form A (Low
same,Result,"Anti-solvent addition; freebase, solvent Toluene, anti-solvent n-Heptane",Amorphous
same,Result,"Slow evaporation; freebase polymorph screening summary, Slow Evaporation","Form A, amorphous, gel"
same,Result,"Slow evaporation; freebase, evaporation at RT, 2-MeTHF",Gel
same,Result,"Slow evaporation; freebase, evaporation at RT, ACN",Form A
same,Result,"Slow evaporation; freebase, evaporation at RT, Acetone",Form A
same,Result,"Slow evaporation; freebase, evaporation at RT, DCM",Form A (Low crystallinity)
same,Result,"Slow evaporation; freebase, evaporation at RT, EtOAc",Amorphous
same,Result,"Slow evaporation; freebase, evaporation at RT, EtOH",Form A
same,Result,"Slow evaporation; freebase, evaporation at RT, IPAc",Gel
same,Result,"Slow evaporation; freebase, evaporation at RT, MEK",Amorphous
same,Result,"Slow evaporation; freebase, evaporation at RT, MeOH",Amorphous
same,Result,"Slow evaporation; freebase, evaporation at RT, THF",Amorphous
same,Result,[3]; freebase polymorph screening summary,"Form A, amorphous, gel, clear"
same,Slurry conversion result (XRPD form),"[4]; 5° C., different solvent systems",Form A and amorphous were obtained
same,Slurry conversion result (XRPD form),"[4]; 50° C., H2O",Amorphous
same,Slurry conversion result (XRPD form),"[4]; 50° C., different solvent systems",amorphous was obtained
same,Slurry conversion result (XRPD form),"[4]; 50° C., n-Heptane",Amorphous
same,Slurry conversion result (XRPD form),"[4]; RT, different solvent systems",Form A and amorphous were obtained
same,Result,"[4]; freebase polymorph screening summary, Slurry at RT/5 °C/50 °C","Form A, amorphous, gel,"
same,Result,"[4]; freebase slurry at 5° C., 2-MeTHF/n-Heptane, 1:3",Gel
same,Result,"[4]; freebase slurry at 5° C., ACN",Form A
same,Result,"[4]; freebase slurry at 5° C., DMAc/n-Heptane, 1:3",Gel
same,Result,"[4]; freebase slurry at 5° C., DMF/H2O, 1:3",Amorphous
same,Result,"[4]; freebase slurry at 5° C., Ethyl lactate/H2O, 1:3",Gel
same,Result,"[4]; freebase slurry at 5° C., IPAc/n-Heptane, 1:3",Amorphous
same,Result,"[4]; freebase slurry at 5° C., MIBK/n-Heptane, 1:3",Gel
same,Result,"[4]; freebase slurry at 5° C., NMP/H2O, 1:4",Amorphous
same,Result,"[4]; freebase slurry at 5° C., Xylene/n-Heptane, 1:3",Amorphous
same,Result,"[4]; freebase slurry at RT, 1,4-Dioxane/H2O, 1:4",Amorphous
same,Result,"[4]; freebase slurry at RT, ACN",Form A
same,Result,"[4]; freebase slurry at RT, ACN/H2O, 1:1",Form A (Low crystallinity)
same,Result,"[4]; freebase slurry at RT, Acetone/H2O, 1:4",Form A
same,Result,"[4]; freebase slurry at RT, Anisole/n-Heptane, 1:4",Gel
same,Result,"[4]; freebase slurry at RT, Benzyl alcohol/n-Heptane, 1:4",Gel
same,Result,"[4]; freebase slurry at RT, CPME/Cyclohexane, 1:4",Amorphous
same,Result,"[4]; freebase slurry at RT, DCM/n-Heptane, 1:4",Form A
same,Result,"[4]; freebase slurry at RT, EtOAc/Cyclohexane, 1:4",Amorphous
same,Result,"[4]; freebase slurry at RT, EtOH",Form A
same,Result,"[4]; freebase slurry at RT, EtOH/H2O, 1:1",Form A
same,Result,"[4]; freebase slurry at RT, IPA",Form A (Low crystallinity)
same,Result,"[4]; freebase slurry at RT, MEK/Cyclohexane, 1:4",Amorphous
same,Result,"[4]; freebase slurry at RT, MTBE",Gel
same,Result,"[4]; freebase slurry at RT, THF/n-Heptane, 1:4",Form A
same,Result,"[4]; freebase slurry at RT, Toluene/Cyclohexane, 1:4",Amorphous
